Data as given in patent US10603298B2, “Succinate dehydrogenase inhibitors (SDHi's)” (Medical Research Council, priority 2014, dated 2020).

How the values were obtained:
complex II = conditions: cited from earlier work; for concentration to achieve half-maximal inhibition: Drose et al 2011
[1] = tested on: ischemia-reperfusion injury; conditions: chemical preconditioning, rats; Hu et al, Hirata et al; cited from earlier work
[2] = tested on: succinate accumulation in the ischaemic myocardium; assay: Succinate accumulation in the ischaemic myocardium in vivo (LC-MS); conditions: i.v. infusion in vivo, mouse; 30 min ischaemia
Method: For the in vivo heart IR model an open-chest, in situ heart model was used^31,32. Male mice (8-10 weeks; Charles River Laboratories, UK) were anaesthetised with sodium pentobarbital (70 mg/kg intraperitoneally (i.p.)), intubated endotracheally and ventilated with 3 cm H2O positive-end expiratory pressure. Adequacy of anaesthesia was monitored using corneal and withdrawal reflexes. Ventilation frequency was kept at 110 breaths per minute with tidal volume between 125-150 μL. A thoracotomy was performed and the heart exposed by stripping the pericardium. A prominent branch of the left anterior descending coronary artery (LAD) was surrounded by a 7-0 Prolene suture that was then passed through a small plastic tube. Ischaemia was induced by tightening the tubing against the heart surface. To assess metabolites during IR in vivo, mice were divided into three groups: 30 min ischaemia, 30 min ischaemia plus 5 min reperfusion and 30 min sham-operation in which the suture was placed but the LAD was not occluded. At the end of each protocol tissue was removed from the at risk and peripheral areas of the heart, selected visually by comparing white versus red tissue, and snap-frozen in liquid nitrogen. Sham-operated tissue was removed from the presumed risk zone. Infarct size was assessed after 30 min of ischaemia followed by 120 min reperfusion using 2% triphenyltetrazolium chloride staining and is expressed as a percentage of the risk zone^33. […] For the LC separation, column A was Sequant Zic-Hilic (150 mm×4.6 mm, internal diameter 3.5 μm) with a guard column (20 mm×2.1 mm 3.5 μm) from HiChrom, Reading, UK. […] (150 mm×2.1 mm i.d. 3.5 μm) with guard column (20 mm×2.1 mm i.d. […]) from HiChrom, Reading, UK. […] Spectra were analysed using both targeted and untargeted approaches. For the targeted approach spectra were analysed using XCalibur Qual Browser and XCalibur Quan Browser softwares (Thermo Scientific) by referencing to an internal library of compounds. […] The arrays of spectra were then statistically analysed using the functions explore.data and univariate of the R package mum a^40.

[3] = tested on: heart, simulated ischemia-reperfusion injury; conditions: Wojtovich et al 2009; mKATP channel dependent mechanism; cited from earlier work
[4] = tested on: ischaemic succinate accumulation (GABA shunt); assay: Ex vivo perfused mouse heart, no flow ischaemia: succinate abundance (LC-MS); conditions: 30 min no flow ischaemia, vigabatrin 100, 300, 700 μM
Method: FIG. 9: Effect of GABA transaminase inhibition by vigabatrin on GABA shunt and CAC metabolites in the ischaemic myocardium. Perfused mouse hearts were subjected to 30 min no flow ischaemia±continuous infusion of vigabatrin (Vig; 100, 300, and 700 μM) 10 min prior to ischaemia. Heart tissue was snap frozen and a, GABA and b, succinate abundance quantified relative to normoxic levels by LC-MS. n=3, * p<0.05.
Mice were heparinised (200 U i.p.) and anaesthetised with sodium pentobarbital (100 mg/kg i.p.). […]
Equal amounts wet weight murine tissue were lysed in 250 μL extraction solution (ES; 30% acetonitrile, 50% methanol and 20% water) per 10 mg tissue in Precellysis 24 vials, following the manufacturer's instructions. […] For the LC separation, column A was Sequant Zic-Hilic (150 mm×4.6 mm, internal diameter 3.5 μm) with a guard column (20 mm×2.1 mm 3.5 μm) from HiChrom, Reading, UK. […] Gradient: 0-3 min 80% B, 25 min 20% B, 26 min 80% B, 36 min 80% B. Column B was sequant Zic-pHilic (150 mm×2.1 mm i.d. 3.5 μm) with guard column (20 mm×2.1 mm i.d. 3.5 Mm) from HiChrom, Reading, UK. […] Spectra were analysed using both targeted and untargeted approaches. For the targeted approach spectra were analysed using XCalibur Qual Browser and XCalibur Quan Browser softwares (Thermo Scientific) by referencing to an internal library of compounds. […]

O=C(O)CC[N+](=O)[O-] [3-nitropropionate]
reversibility of complex II inhibition (complex II): irreversible | ischemia-reperfusion injury [1]: reduced ischemia-reperfusion injury

NC(=O)c1ncn([C@@H]2O[C@H](CO)[C@@H](O)[C@H]2O)c1N [AICAR, 5-amino-1-β-D-ribofuranosyl-imidazole-4-carboxamide]
succinate accumulation in the ischaemic myocardium [2]: decreased ischaemic succinate levels

NOCC(=O)O [AOA, aminooxyacetate]
succinate accumulation in the ischaemic myocardium [2]: decreased ischaemic succinate levels

O=C(CC(=O)C(F)(F)F)c1cccs1 [TTFA, 2-thenoyltrifluoroacetone]
reversibility of complex II inhibition (complex II): irreversible

COc1[nH]c(=O)c(C(=O)[C@@H](C)C[C@H](C)[C@@H](Cl)CCl)c(O)c1OC [atpennin A5]
concentration to achieve half-maximal inhibition (complex II): nanomolar levels | reversibility of complex II inhibition (complex II): irreversible | protection of the heart against simulated ischemia-reperfusion injury [3]: protects the heart against simulated ischemia-reperfusion injury

O=C(O)CC(=O)O [malonate]
concentration to achieve half-maximal inhibition (complex II): millimolar levels

C=CC(N)CCC(=O)O (stereo not shown) [vigabatrin]
ischaemic succinate accumulation [4]: did not decrease ischaemic succinate accumulation
